# According to patent publication US20120065267A1, “COMPOSITIONS INCLUDING 3,5-L-T2 AND METHODS OF USE THEREOF” (priority 2010, published 2012):
# “And” between values parts separate entries of the source, which are not always exact repeats. Equal entries are not always repeated.
# Experiments:
# [1] = system: C57, LDLr+/− and LDLr0 mice; assay: Serum triglycerides in mice on Western Diet given daily oral T2; type: in vivo; design: Triglycerides / Triglycerides (Ave): unit not given here
# Experimental: (§1) This corresponds to a dosage for an 80 kg human of about 20-200 mg/day, or a low dose of about 0.2-0.3 mg/kg of body weight to a high dose of about 2-3 mg/kg of body weight. One will appreciate, however, that some subjects (e.g., subjects having very low LDL receptor function) may receive higher doses, depending on need. likewise, some subjects may receive lower doses, which again depends on need. Mice in the study were fed a standard lab chow referred to as the “Western Diet.” The overall level of fat and the saturated nature of the fat are representative diets typical in the industrialized west that are linked to risk of cardiovascular disease in humans. The formula is used primarily with genetically manipulated rodent models that are susceptible to high cholesterol and cardiovascular disease. The diet may also be useful in diet-induced obesity, diabetes, and metabolic syndrome models. High cholesterol, obesity, and diabetes are each associated increased risk for cardiovascular disease. The composition of the Western Diet is shown below. C57 is a wild-type strain, LDLr+/− are a strain carrying one functional copy of the LDLr gene, and the LDLr0 animals are total LDLr knockouts. The LDLr gene encodes for the LDL receptor protein, which is responsible for scavenging LDL with bound cholesterol from the blood and transporting it into cells. Both heterozygous and homozygous LDLr knockout animals develop very high serum cholesterol levels and are considered to be a good model for heterozygous and homozygous familial hypercholesterolemia in humans. […] LDLr knockout animals have zero LDL receptor function.
# [2] = Body weight of mice on Western Diet given low or high dose T2; type: in vivo
# Experimental: as §1
structure (smiles),measurement,setting,value
"N[C@@H](Cc1cc(I)c(Oc2ccc(O)cc2)c(I)c1)C(=O)O [T2, (2S)-2-amino-3-[4-(4-hydroxyphenoxy)-3,5-diiodophenyl]propanoic acid]",Triglycerides (Ave),"[1]; C57 mice, 1 Week High Dose, T2 2.5 mg/kg daily oral, group average",55.8
same,Triglycerides,"[1]; C57 mice, 1 Week High Dose, T2 2.5 mg/kg daily oral, individual animal, 2.5 mg/kg",42.161 and 68.02 and 45.486 and 50.657 and 72.822
same,Triglycerides (Ave),"[1]; C57 mice, 1 Week Low Dose, T2 0.25 mg/kg daily oral, group average",29.5
same,Triglycerides,"[1]; C57 mice, 1 Week Low Dose, T2 0.25 mg/kg daily oral, individual animal, 0.25 mg/kg",24.835 and 29.673 and 13.299 and 36.371 and 43.441
same,Triglycerides (Ave),"[1]; LDLr0 mice (first group), 1 Week High Dose, T2 2.5 mg/kg daily oral, group average",192.1
same,Triglycerides,"[1]; LDLr0 mice (first group), 1 Week High Dose, T2 2.5 mg/kg daily oral, individual animal, 2.5 mg/kg",173.672 and 210.614
same,Triglycerides (Ave),"[1]; LDLr0 mice (first group), 1 Week Low Dose, T2 0.25 mg/kg daily oral, group average",183.0
same,Triglycerides,"[1]; LDLr0 mice (first group), 1 Week Low Dose, T2 0.25 mg/kg daily oral, individual animal, 0.25 mg/kg",230.244 and 106.329 and 212.382
same,Triglycerides (Ave),"[1]; LDLr0 mice (second group), 1 Week Low Dose, T2 0.25 mg/kg daily oral, group average",236.2
same,Triglycerides,"[1]; LDLr0 mice (second group), 1 Week Low Dose, T2 0.25 mg/kg daily oral, individual animal, 0.25 mg/kg",183.413 and 260.001 and 239.273 and 268.082 and 244.895 and 177.441 and 263.163 and 252.975
same,Triglycerides (Ave),"[1]; LDLr0 mice (second group), 2 Week High Dose (as headed), daily oral T2, group average",356.5
same,Triglycerides,"[1]; LDLr0 mice (second group), 2 Week High Dose (as headed), daily oral T2, individual animal",225.895 and 274.993 and 402.246 and 281.673 and 462.031 and 223.557 and 485.745 and 496.099
same,Triglycerides (Ave),"[1]; LDLr+/− mice, 1 Week High Dose, T2 2.5 mg/kg daily oral, group average",52.1
same,Triglycerides,"[1]; LDLr+/− mice, 1 Week High Dose, T2 2.5 mg/kg daily oral, individual animal, 2.5 mg/kg",40.683 and 35.511 and 62.848 and 68.389 and 37.359 and 68.02
same,Triglycerides (Ave),"[1]; LDLr+/− mice, 1 Week Low Dose, T2 0.25 mg/kg daily oral, group average",31.4
same,Triglycerides,"[1]; LDLr+/− mice, 1 Week Low Dose, T2 0.25 mg/kg daily oral, individual animal, 0.25 mg/kg",12.927 and 34.138 and 40.464 and 29.673 and 31.161 and 40.092
same,effect on serum triglyceride levels,"[1]; low and high dose T2, all genotypes",did not affect
same,Body weight (Ave),"[2]; C57 mice, High Dose T2 2.5 mg/kg daily oral, Day 1, group average",28.1 g
same,Body weight,"[2]; C57 mice, High Dose T2 2.5 mg/kg daily oral, Day 1, individual animal, 2.5 mg/kg",29.6 (2×) and 24.9 and 29.8 and 26.7
same,Body weight (Ave),"[2]; C57 mice, High Dose T2 2.5 mg/kg daily oral, Day 2, group average",28.4 g
same,Body weight,"[2]; C57 mice, High Dose T2 2.5 mg/kg daily oral, Day 2, individual animal, 2.5 mg/kg, in g (unit assumed)",29.5 and 30.1 and 25.8 and 29.7 and 27.1
same,Body weight (Ave),"[2]; C57 mice, High Dose T2 2.5 mg/kg daily oral, Day 3, group average",28.4 g
same,Body weight,"[2]; C57 mice, High Dose T2 2.5 mg/kg daily oral, Day 3, individual animal, 2.5 mg/kg, in g (unit assumed)",29.8 and 30.0 and 25.1 and 29.9 and 27.2
same,Body weight (Ave),"[2]; C57 mice, High Dose T2 2.5 mg/kg daily oral, Day 4, group average",27.4 g
same,Body weight,"[2]; C57 mice, High Dose T2 2.5 mg/kg daily oral, Day 4, individual animal, 2.5 mg/kg, in g (unit assumed)",29.1 and 28.7 and 23.4 and 28.8 and 27
same,Body weight (Ave),"[2]; C57 mice, High Dose T2 2.5 mg/kg daily oral, Day 5, group average",27.7 g
same,Body weight,"[2]; C57 mice, High Dose T2 2.5 mg/kg daily oral, Day 5, individual animal, 2.5 mg/kg, in g (unit assumed)",29.7 and 29.1 and 24.1 and 28.5 and 27.3
same,Body weight (Ave),"[2]; C57 mice, Low Dose T2 0.25 mg/kg daily oral, Day 1, group average",25.2 g
same,Body weight,"[2]; C57 mice, Low Dose T2 0.25 mg/kg daily oral, Day 1, individual animal, 0.25 mg/kg, in g (unit assumed)",26.5 and 27.0 and 23.0 and 26.4 and 24.0 and 24.1
same,Body weight (Ave),"[2]; C57 mice, Low Dose T2 0.25 mg/kg daily oral, Day 2, group average",26.1 g
same,Body weight,"[2]; C57 mice, Low Dose T2 0.25 mg/kg daily oral, Day 2, individual animal, 0.25 mg/kg, in g (unit assumed)",28.2 and 27.7 and 24.1 and 26.3 and 25.5 and 24.9
same,Body weight (Ave),"[2]; C57 mice, Low Dose T2 0.25 mg/kg daily oral, Day 3, group average",26.5 g
same,Body weight,"[2]; C57 mice, Low Dose T2 0.25 mg/kg daily oral, Day 3, individual animal, 0.25 mg/kg, in g (unit assumed)",28.3 and 27.8 and 23.3 and 27.9 and 26.2 and 25.6
same,Body weight (Ave),"[2]; C57 mice, Low Dose T2 0.25 mg/kg daily oral, Day 4, group average",25.8 g
same,Body weight,"[2]; C57 mice, Low Dose T2 0.25 mg/kg daily oral, Day 4, individual animal, 0.25 mg/kg, in g (unit assumed)",26.8 and 27.2 and 23.7 and 26.7 and 25.1 and 25.4
same,Body weight (Ave),"[2]; C57 mice, Low Dose T2 0.25 mg/kg daily oral, Day 5, group average",26.8 g
same,Body weight,"[2]; C57 mice, Low Dose T2 0.25 mg/kg daily oral, Day 5, individual animal, 0.25 mg/kg, in g (unit assumed)",27.3 and 28.3 and 24.5 and 27.5 and 26.4
same,Body weight (Ave),"[2]; C57 mice, Low Dose T2 0.25 mg/kg daily oral, Day 6, group average",27.5 g
same,Body weight,"[2]; C57 mice, Low Dose T2 0.25 mg/kg daily oral, Day 6, individual animal, 0.25 mg/kg, in g (unit assumed)",28.1 and 29.9 and 24.8 and 28.7 and 26.1
same,Body weight (Ave),"[2]; C57 mice, Low Dose T2 0.25 mg/kg daily oral, Day 7, group average",28.3 g
same,Body weight,"[2]; C57 mice, Low Dose T2 0.25 mg/kg daily oral, Day 7, individual animal, 0.25 mg/kg, in g (unit assumed)",29.5 and 30.7 and 26.2 and 29.0 and 26.1
same,Body weight (Ave),"[2]; LDLr0 mice, High Dose T2 2.5 mg/kg daily oral, Day 1, group average",25.7 g
same,Body weight,"[2]; LDLr0 mice, High Dose T2 2.5 mg/kg daily oral, Day 1, individual animal, 2.5 mg/kg, in g (unit assumed)",23.9 and 27.4
same,Body weight (Ave),"[2]; LDLr0 mice, High Dose T2 2.5 mg/kg daily oral, Day 2, group average",24 g
same,Body weight,"[2]; LDLr0 mice, High Dose T2 2.5 mg/kg daily oral, Day 2, individual animal, 2.5 mg/kg, in g (unit assumed)",23.1 and 24.8
same,Body weight (Ave),"[2]; LDLr0 mice, High Dose T2 2.5 mg/kg daily oral, Day 3, group average",23.9 g
same,Body weight,"[2]; LDLr0 mice, High Dose T2 2.5 mg/kg daily oral, Day 3, individual animal, 2.5 mg/kg, in g (unit assumed)",22.8 and 24.9
same,Body weight (Ave),"[2]; LDLr0 mice, High Dose T2 2.5 mg/kg daily oral, Day 4, group average",24.2 g
same,Body weight,"[2]; LDLr0 mice, High Dose T2 2.5 mg/kg daily oral, Day 4, individual animal, 2.5 mg/kg, in g (unit assumed)",23.5 and 24.8
same,Body weight (Ave),"[2]; LDLr0 mice, High Dose T2 2.5 mg/kg daily oral, Day 5, group average",24.2 g
same,Body weight,"[2]; LDLr0 mice, High Dose T2 2.5 mg/kg daily oral, Day 5, individual animal, 2.5 mg/kg, in g (unit assumed)",23.1 and 25.3
same,Body weight (Ave),"[2]; LDLr0 mice, Low Dose T2 0.25 mg/kg daily oral, Day 1, group average",22.3 g
same,Body weight,"[2]; LDLr0 mice, Low Dose T2 0.25 mg/kg daily oral, Day 1, individual animal, 0.25 mg/kg, in g (unit assumed)",23.1 and 21.1 and 22.7 and 22.1
same,Body weight (Ave),"[2]; LDLr0 mice, Low Dose T2 0.25 mg/kg daily oral, Day 2, group average",22.8 g
same,Body weight,"[2]; LDLr0 mice, Low Dose T2 0.25 mg/kg daily oral, Day 2, individual animal, 0.25 mg/kg, in g (unit assumed)",21.6 and 23.6 and 23.2
same,Body weight (Ave),"[2]; LDLr0 mice, Low Dose T2 0.25 mg/kg daily oral, Day 3, group average",23.4 g
